In this experiment the target is T1, histone H1.
T1 construct: Recombinant histone H1 immobilized on CM5 chip
The experiment in a line: SPR (Biacore 8K, […] Langmuir fit); supported by in vitro co-condensation with H1-CFP. The experiment is classed as binding.

The structures appear in SMILES notation.

As usually defined, the Kd is the free concentration of one partner at which half of the binding sites on the other are occupied at equilibrium, for simple one-to-one binding. Lower therefore signals higher affinity. Consider `COc1cccc2c1C(=O)c1c(O)c3c(c(O)c1C2=O)C[C@@](O)(C(=O)CO)C[C@@H]3O[C@H]1C[C@H](N)[C@H](O)[C@H](C)O1` [adriamycin], for which the Kd came to 1970 nM. In other words, the single-digit micromolar range.

These data come from paper PMC10492836, “Chemical-induced phase transition and global conformational reorganization of chromatin” (Nature Communications, 2023).
